Reference: PMC11911254 (Pharmacological Reports, 2025)

Assays:
[1] = Concentration of paracetamol and its metabolites in plasma, CSF and brain cortex by LC-MS/MS; settings: for concentration at 30 min: Sprague Dawley, rat; for Concentration in plasma / Concentration in brain: individual values if <3 samples
Experimental: Drug injection protocol is illustrated in Fig. 1.
Male and female postnatal P4 pups and 7–8 week-old non-pregnant females were used. […] In combination therapy experiments, this dose was accompanied by one of the 7 other drugs (Table 1). For all experiments, animals were terminally anesthetized 30 min after the drug injection using inhaled isoflurane (IsoFlo 100% w/w, Abbott Laboratories), and blood, CSF, and brain samples were collected. Blood was collected directly from the right cardiac ventricle, CSF from the cisterna magna, and cortical brain samples from the frontal/parietal lobes dorsal to the lateral ventricles as described previously.
Pregnant E19 dams were anesthetized with ip urethane injection (25% w/v urethane, Sigma, 1 ml/100 g body weight) and placed on a 39 °C heating pad in the supine position. An endotracheal catheter was inserted to maintain a clear airway. Catheters were inserted into the femoral vein and artery for iv drug administration and arterial blood sampling respectively. The cannula was flushed with 0.5 ml of heparinized saline (Hospira Inc, 5,000 units/ml) after drug administration and following each arterial blood sample. Following drug administration to the dams, fetuses were exteriorized and serially collected starting at 30 min post-maternal injection. […] At collection, the viability of each fetus was assessed (presence of a heartbeat, the colour of the umbilical vessels) and blood, CSF, and brain samples were taken along with a time-matched maternal blood sample from the femoral artery. At the end of the experiment, a final maternal blood sample was taken directly from the left cardiac ventricle, and CSF and brain samples were collected.
This method has been described previously for valproate, lamotrigine, and olanzapine and was applied in the present study. Simultaneous quantification was performed for all compounds in plasma, brain, and CSF samples following the addition of respective stable isotope-labeled internal standards.
Linear response range was determined in untreated control rat plasma for each compound at 0.1, 1, 10, 50, 100, 200, 400, and 800 µg/ml.

[2] = parameters: method as in PMID 7288602; settings: rats; single dose of 15 mg/kg; cited from earlier work
[3] = cited from earlier work
[4] = non-pregnant adult rats, 30 min after ip paracetamol 15 mg/kg + lamotrigine 6 mg/kg (PARA+LTG, n=3), median (IQR)

Q: For `CC(=O)Nc1ccc(O)cc1` [Paracetamol, reference compound], which concentration at 30 min ([1]; both, brain cortex, intraperitoneal, Concentration in brain, P4 rats, 30 min after ip paracetamol 15 mg/kg + valproate 30 mg/kg (PARA+VPA, n=4), median (IQR) or individual values) is on record?
A: Its concentration at 30 min is 5300 ng/mL.

Q: And the concentration at 30 min ([1]; both, brain, CSF, 15 mg/kg, brain and CSF concentrations, monotherapy 15 mg/kg, 30 min, all ages (E19, P4, adult))?
A: Its concentration at 30 min is 5000 to 10000 ng/mL.

Q: What about the concentration at 30 min ([1]; both, plasma, intraperitoneal, 15 mg/kg, Concentration in plasma, P4 rats, 30 min after ip paracetamol 15 mg/kg monotherapy (PARA, n=4), median (IQR)) of the same compound?
A: The concentration at 30 min was 5600 ng/mL.

Q: What about the concentration at 30 min ([1]; both, plasma, intraperitoneal, Concentration in plasma, P4 rats, 30 min after ip paracetamol 15 mg/kg + cimetidine 11 mg/kg (PARA+CIM, n=4), median (IQR)) of the same compound?
A: Its concentration at 30 min is 10600 ng/mL.

Q: What about the concentration at 30 min ([1]; both, plasma, intraperitoneal, Concentration in plasma, P4 rats, 30 min after ip paracetamol 15 mg/kg + digoxin 0.03 mg/kg (PARA+DIG, n=4), median (IQR)) of the same compound?
A: Its concentration at 30 min is 8200 ng/mL.

Q: And the concentration at 30 min ([1]; both, plasma, intraperitoneal, Concentration in plasma, P4 rats, 30 min after ip paracetamol 15 mg/kg + fluvoxamine 1.5 mg/kg (PARA+FLX, n=4), median (IQR))?
A: The concentration at 30 min was 6500 ng/mL.

Q: And the concentration at 30 min ([1]; both, plasma, intraperitoneal, Concentration in plasma, P4 rats, 30 min after ip paracetamol 15 mg/kg + lamotrigine 6 mg/kg (PARA+LTG, n=5), median (IQR))?
A: The concentration at 30 min was 7200 ng/mL.

Q: What about the concentration at 30 min ([1]; both, plasma, intraperitoneal, Concentration in plasma, P4 rats, 30 min after ip paracetamol 15 mg/kg + lithium 3.2 mg/kg (PARA+Li, n=4), median (IQR)) of the same compound?
A: Its concentration at 30 min is 4300 ng/mL.

Q: What about the concentration at 30 min ([1]; both, plasma, intraperitoneal, Concentration in plasma, P4 rats, 30 min after ip paracetamol 15 mg/kg + olanzapine 0.15 mg/kg (PARA+OLZ, n=4), median (IQR)) of the same compound?
A: The concentration at 30 min was 5600 ng/mL.

Q: And the concentration at 30 min ([1]; both, plasma, intraperitoneal, Concentration in plasma, P4 rats, 30 min after ip paracetamol 15 mg/kg + valproate 30 mg/kg (PARA+VPA, n=4), median (IQR) or individual values)?
A: The concentration at 30 min was 6700 ng/mL.

Q: And the concentration at 30 min ([1]; both, plasma, intraperitoneal, concentration in plasma, P4, monotherapy and combination therapy with any of the drugs investigated)?
A: Its concentration at 30 min is about 5000 ng/mL.

Q: And the concentration at 30 min ([1]; female, CSF, intraperitoneal, 15 mg/kg, Concentration in CSF, non-pregnant adult rats, 30 min after ip paracetamol 15 mg/kg monotherapy (PARA, n=6), median (IQR))?
A: Its concentration at 30 min is 5300 ng/mL.

Q: And the concentration at 30 min ([1]; female, CSF, intraperitoneal, Concentration in CSF, non-pregnant adult rats, 30 min after ip paracetamol 15 mg/kg + cimetidine 11 mg/kg (PARA+CIM, n=3), median (IQR))?
A: Its concentration at 30 min is 2100 ng/mL.

Q: And the concentration at 30 min ([1]; female, CSF, intraperitoneal, Concentration in CSF, non-pregnant adult rats, 30 min after ip paracetamol 15 mg/kg + digoxin 0.03 mg/kg (PARA+DIG, n=3), median (IQR))?
A: The concentration at 30 min was 4200 ng/mL.

Q: What about the concentration at 30 min ([1]; female, CSF, intraperitoneal, Concentration in CSF, non-pregnant adult rats, 30 min after ip paracetamol 15 mg/kg + fluvoxamine 1.5 mg/kg (PARA+FLX, n=4), median (IQR)) of the same compound?
A: Its concentration at 30 min is 4400 ng/mL.

Q: And the concentration at 30 min ([1]; female, CSF, intraperitoneal, Concentration in CSF, non-pregnant adult rats, 30 min after ip paracetamol 15 mg/kg + olanzapine 0.15 mg/kg (PARA+OLZ, n=4), median (IQR))?
A: The concentration at 30 min was 4200 ng/mL.

Q: And the concentration at 30 min ([1]; female, CSF, intraperitoneal, Concentration in CSF, non-pregnant adult rats, 30 min after ip paracetamol 15 mg/kg + valproate 30 mg/kg (PARA+VPA, n=3), median (IQR))?
A: Its concentration at 30 min is 4700 ng/mL.

Q: What about the concentration at 30 min ([1]; female, brain, intraperitoneal, 15 mg/kg, Concentration in brain, non-pregnant adult rats, 30 min after ip paracetamol 15 mg/kg monotherapy (PARA, n=6), median (IQR)) of the same compound?
A: The concentration at 30 min was 8100 ng/mL.

Q: What about the concentration at 30 min ([1]; female, brain, intraperitoneal, Concentration in brain, non-pregnant adult rats, 30 min after ip paracetamol 15 mg/kg + cimetidine 11 mg/kg (PARA+CIM, n=3), median (IQR)) of the same compound?
A: The concentration at 30 min was 2900 ng/mL.

Q: And the concentration at 30 min ([1]; female, brain, intraperitoneal, Concentration in brain, non-pregnant adult rats, 30 min after ip paracetamol 15 mg/kg + olanzapine 0.15 mg/kg (PARA+OLZ, n=4), median (IQR))?
A: The concentration at 30 min was 3900 ng/mL.

Q: And the concentration at 30 min ([1]; female, brain, intraperitoneal, Concentration in brain, non-pregnant adult rats, 30 min after ip paracetamol 15 mg/kg + valproate 30 mg/kg (PARA+VPA, n=3), median (IQR))?
A: The concentration at 30 min was 7500 ng/mL.

Q: What about the concentration at 30 min ([1]; female, plasma, intraperitoneal, 15 mg/kg, Concentration in plasma, non-pregnant adult rats, 30 min after ip paracetamol 15 mg/kg monotherapy (PARA, n=6), median (IQR)) of the same compound?
A: Its concentration at 30 min is 8400 ng/mL.

Q: What about the concentration at 30 min ([1]; female, plasma, intraperitoneal, Concentration in plasma, non-pregnant adult rats, 30 min after ip paracetamol 15 mg/kg + digoxin 0.03 mg/kg (PARA+DIG, n=3), median (IQR)) of the same compound?
A: Its concentration at 30 min is 4400 ng/mL.

Q: And the concentration at 30 min ([1]; female, plasma, intraperitoneal, Concentration in plasma, non-pregnant adult rats, 30 min after ip paracetamol 15 mg/kg + fluvoxamine 1.5 mg/kg (PARA+FLX, n=4), median (IQR))?
A: Its concentration at 30 min is 4600 ng/mL.

Q: And the concentration at 30 min ([1]; female, plasma, intraperitoneal, Concentration in plasma, non-pregnant adult rats, 30 min after ip paracetamol 15 mg/kg + olanzapine 0.15 mg/kg (PARA+OLZ, n=4), median (IQR))?
A: The concentration at 30 min was 6700 ng/mL.

Q: What about the Concentration in plasma ([1]; non-pregnant adult rats, 30 min after ip paracetamol 15 mg/kg + cimetidine 11 mg/kg (PARA+CIM, n=3), median (IQR)) of the same compound?
A: The Concentration in plasma was 3.4 (1.0) µg/ml.

Q: And the Concentration in brain ([1]; non-pregnant adult rats, 30 min after ip paracetamol 15 mg/kg + digoxin 0.03 mg/kg (PARA+DIG, n=3), median (IQR))?
A: The Concentration in brain was 4.3 (1.6) µg/ml.

Q: And the Concentration in brain [1, 4]?
A: The Concentration in brain was 7.1 (0.7) µg/ml.

Q: What about the Concentration in plasma [1, 4] of the same compound?
A: Its Concentration in plasma is 7.5 (1.0) µg/ml.

Q: What about the Concentration in plasma ([1]; non-pregnant adult rats, 30 min after ip paracetamol 15 mg/kg + valproate 30 mg/kg (PARA+VPA, n=3), median (IQR)) of the same compound?
A: The Concentration in plasma was 7.5 (1.3) µg/ml.

Q: And the half-life [2]?
A: Its half-life is “around 16 min”.

Q: And the “fraction metabolized by glucuronidation via UGT enzymes” value ([3]; adult humans, liver)?
A: The value was 55–60%.

Q: What about the “fraction metabolized by sulfation via SULT enzymes” value ([3]; adult humans, liver) of the same compound?
A: Its value is 20–30%.

Q: What about the “fraction excreted unchanged in urine” value ([3]; adult humans) of the same compound?
A: Its value is “around 4%”.

Q: What about the “fraction turned into NAPQI via cytochrome P450 enzymes” value ([3]; adult humans) of the same compound?
A: The value was “Up to 10%”.

Q: And the “proportion of paracetamol's metabolism by the glutathione metabolic pathway” value [3]?
A: Its value is under 10%.
